We go through four compounds from the NIST ThermoML archive (doi:10.1021/je060411g).

A short description of series [1]: Molar enthalpy of transition or fusion.

± gives the expanded uncertainty stated by the source.

`CC(C)(C)CO` [2,2-dimethyl-1-propanol]: the Triple point temperature (Crystal 1) came out at 328.2 ± 0.4 K and the Triple point temperature (Crystal 2) was found to be 233.3 ± 1 K. For the same compound, the “Molar enthalpy of transition or fusion” value came to 2.9 ± 0.2 kJ/mol in series [1] (Crystal 1) and 4.1 ± 0.2 kJ/mol in series [1] (Crystal 2).

Consider `CCC(O)CC` [3-pentanol], for which the Glass transition temperature is -143 ± 5 °C. Moreover, the Triple point temperature (Crystal) stood at 203.2 ± 0.4 K. The “Molar enthalpy of transition or fusion” value in series [1] (Crystal 1) is 1.66 ± 0.2 kJ/mol.

In the case of `CCC(C)(C)O` [2-methylbutan-2-ol], the Triple point temperature by setting is: (Crystal 1) 264.7 ± 0.4 K; (Crystal 2) 215 ± 1 K; (Crystal 3) 145.8 ± 0.4 K. The “Molar enthalpy of transition or fusion” value came to 2 ± 0.2 kJ/mol in series [1] (Crystal 1) and 0.9 ± 0.1 kJ/mol in series [1] (Crystal 3).

As to `CCC(C)CO` (stereo not drawn) [2-methyl-1-butanol], where the note is “Adiabatic calorimetry”, the Glass transition temperature is -155 ± 5 °C.
